Laboratory results taken from paper PMC9304282, “Relating Conformational Equilibria to Conformer‐Specific Lipophilicities: New Opportunities in Drug Discovery” (Angewandte Chemie (International Ed. in English), 2021).
Values joined by “and” are separate entries in the source; they are usually repeats but may differ in a detail not shown here. Equal entries are not always repeated. Where two headings read alike, the source gives them in different places.

Key:
[1] = logP and conformer-specific logp determination by 19F NMR (octanol/water partitioning); format: physicochemical; settings: for logP: n-octanol/water, octanol/water, 19F NMR
Excerpt: The principle of the strategy for logp optimization, and of the direct logp measurement, is illustrated for amide rotamers (Figure 2) in slow exchange in solution, where each rotamer signal can be integrated directly. This constitutes a system with four coupled equilibria of conformers between (refers to p) and within (refers to K) the two phases (Figure 2A). Our lipophilicity measurement procedure[18] involves acquiring a ^19F NMR spectrum of each phase after phase separation (Figure 2B), and measuring integration relative to an added internal reference. Three peaks are observed: one corresponding to the reference, and two corresponding to each amide rotamer. A ρ‐value for a given rotamer in a given phase is defined as the integration ratio of the rotamer signal and that of the reference (Eq. 5). Through taking the ratio of the ρ‐values of a rotamer, Equation 6 can be obtained,[18] showing that its logp equals the known logP of the reference plus the log of the ratio of its ρ‐values. The overall logP of the amide is then determined by using the integration sum of its rotamer signals using the same equation.[18]
Linclau et al – supporting information 8
3 The logP determination by 19F NMR
Lipophilicities were determined using a previously published protocol:[1] to a 10 mL pear-shaped flask was added the compound (1.0 - 10 mg) for logP determination, the reference compound (1.0 - 10 mg, with known logP value, e.g., 2,2,2-trifluoroethanol, logP: +0.36), water (2 mL) and n-octanol (2 mL). The resulting biphasic mixture was stirred (at 600 rpm) for 2 h at 25 °C, and then left without stirring for 16 h at 25 °C to allow phase separation. An aliquot of 0.5 mL was taken from each phase using 1 mL syringes with long needles and added to two separate NMR tubes. A deuterated NMR solvent (0.1 mL, e.g., acetone-d6), or a capillary tube containing deuterated NMR solvent, was added to the NMR tubes to enable signal locking.
Because of the volatility of the used compounds, the NMR tubes were sealed using a blowtorch. For NMR samples with directly added deuterated solvent, the tubes were inverted 20 times for mixing. For 19F{1H} NMR experiments, NMR parameters were set as follows: D1 30 sec for the octanol sample, D1 60 sec for the water sample; and O1P centered between two diagnostic fluorine peaks. If needed, an increased number of transients (NS) and/or narrower spectral window (SW) for a good S/N ratio (typically >300) was applied.
After NMR data processing, integration ratios ρoct and ρaq (ρoct is defined as the integration ratio between the compound and the reference compound in the octanol sample; likewise for ρaq) were obtained, and used in the equation (logPX = logPref + log(ρoct/ρaq)) to obtain the logP value of the compound. The logP measurement of each compound was run in triplicate. LogP values of non-fluorinated compounds were taken from the literature.
The standard deviation (σ) was calculated using the formula: […]
Where xi are the individual estimated logP values and x̅ is the mean average.
(§1) Linclau et al – supporting information 21
(§2) 4.3 Detailed experimental data for the logP determinations (roct and rwat values for each
(§3) 4.3.1 Standard NMR settings
(§4) Standard NMR parameter setting: SW, 300 ppm; centered O1P; NS 64; D1 30 sec (octanol sample), D1 60 sec (water sample). Any change from standard setting was described for each compound. Unless specified otherwise 2,2,2-trifluoroethanol (logP: +0.36) was used as the reference compound. […]
(§5) Reference - 1-Fluoropropan-2-ol
(§6) Compound Experimental ρ /ρ LogP Average Error
(§7) (octanol/water) oct wat LogP
(§8) Ratio of E:Z-rotamers, and K value:
(§9) Octanol phase Water phase
(§10) Conformation ρ /ρ LogP Average Error

[2] = amide rotamer ratio (K value) in octanol and water phase by 19F NMR integration; format: physicochemical; settings: experimental
Excerpt: In the closed equilibrium system shown in Figure 2A, the ratio of the p‐values equates to the ratio of the K‐values ((Eq. 7), Figure 2C), so that the difference in logp values equals the log of the K‐value ratio (Eq. 8). In other words: the lipophilicity difference between two conformers is directly related to the change between their equilibrium concentration ratios in water and octanol. The K‐values can be obtained through integration measurement (Eq. 8).
The ρ and K determinations require assignment of each fluorine signal in each phase to a particular rotamer, as it was observed that the relative position of cis‐and trans‐amide rotamer resonances in the ^19F NMR spectrum in octanol was not always the same as that in water. Conformer signal assignment in the water phase is easily accomplished by a control experiment using (octanol‐saturated) D2O by standard NOESY analysis combined with peak integration (see Supporting Information). As perdeuterated octanol is very expensive, this was experimentally non‐trivial for cases when the huge octanol solvent R‐CH 2OH signal and its ^13C satellites obscure proton resonances that are required for rotamer assignment. Solvent suppression techniques are impractical, and skew the integration ratio. We therefore introduced 1,1‐dideuteriooctanol (C7H15CD2OH), which considerably facilitated rotamer assignment. It is prepared on large scale by a modified Bouveault–Blanc reduction[20] of cheap methyl octanoate with EtOD as deuterium source (see Supporting Information).
as §1, §2, §3, §4, §5, §6, §7, §8, §9, §10

[3] = difference between trans and cis rotamer logp
[4] = unrounded mean, read-out: logP, mean as printed in column Error (±σ)
[5] = unrounded mean, read-out: logp cis rotamer, mean as printed in column Error (±σ)
[6] = unrounded mean, read-out: logp trans rotamer, mean as printed in column Error (±σ)
[7] = 25 °C, sum of rotamer signals, read-out: logP (macroscopic lipophilicity, average)
[8] = difference between E and Z rotamer logp
[9] = unrounded mean, read-out: logp E rotamer, mean as printed in column Error (±σ)
[10] = unrounded mean, read-out: logp Z rotamer, mean as printed in column Error (±σ)

Δlogp [1, 3]	logP [1, 4]	logP [1, 5]	logP [1, 6]	logP [1, 7]	Kt/c oct (ratio of trans/cis rotamers) ([2]; octanol phase)	Ratio c/t ([2]; octanol phase)	Kt/c wat (ratio of trans/cis rotamers) ([2]; water phase)	Ratio c/t ([2]; water phase)	logP ([1]; cis amide rotamer, read-out: logp (cis)-rotamer (conformer-specific, average))	Δlogp [1, 8]	logP [1, 9]	logP [1, 10]	KE/Z oct (ratio of E:Z rotamers) ([2]; octanol phase)	Ratio Z/E (K value in parentheses) ([2]; octanol phase)	KE/Z wat (ratio of E:Z rotamers) ([2]; water phase)	Ratio Z/E (K value in parentheses) ([2]; water phase)	Structure (SMILES)
0.09	-0.605	-0.529	-0.618	-0.6	5.29	0.19	6.49	0.15									COC(=O)[C@@H]1C[C@@H](F)CN1C(C)=O [6a, N-acetyl-4R-FPro-OMe]
-0.27	-1.16	-1.39	-1.12	-1.16	8.29	0.12	4.44	0.23	-1.39								CC(=O)N1C[C@H](F)C[C@H]1C(=O)N(C)C [6b, N-acetyl-(2S,4R)-4-fluoroproline dimethyl amide]
	-0.196	-0.035	-0.256	-0.2	2.09		3.48										COC(=O)[C@@H]1CC(F)(F)CN1C(C)=O [7a, N-Acetyl-4,4-F2Pro-OMe]
-0.11	-0.888	-0.978	-0.866	-0.89	4.76	0.21	3.68	0.27									CC(=O)N1CC(F)(F)C[C@H]1C(=O)N(C)C [7b, N-Acetyl-4,4-F2Pro-NMe2]
	-0.568			-0.57						0.06	-0.602	-0.538	0.75	1.33	0.86	1.16	CC(=O)N1CCC(F)C1 (stereo not shown) [compound 2, N-Acetyl-3-fluoropyrrolidine]
	-0.117			-0.12						0.06	-0.153	-0.089	0.72	1.4 and 1.39	0.84	1.2 and 1.19	CC(=O)N1CCC(F)(F)C1 [compound 3, N-Acetyl-3,3-difluoropyrrolidine]
	-0.1			-0.1						-0.19	-0.015	-0.198	1.43	0.70	0.95	1.05	CC(=O)N1CCCC(F)C1 (stereo not shown) [compound 4, N-Acetyl-3-fluoropiperidine]
	0.272			0.27						-0.21	0.378	0.174	1.17	0.85	0.73	1.37	CC(=O)N1CCCC(F)(F)C1 [compound 5, N-Acetyl-3,3-difluoropiperidine]
